{"source": "BigSolDB 2.1", "data": [{"smiles": "CC12CCC(CC1=O)C2(C)C", "note": "(stereo not drawn)", "values": [{"measurement": "solubility (mole fraction)", "setting": "in acetone, 303.15 K", "result": 0.553}, {"measurement": "solubility (mole fraction)", "setting": "in acetone, 308.15 K", "result": 0.571}, {"measurement": "solubility (mole fraction)", "setting": "in acetone, 313.55 K", "result": 0.594}, {"measurement": "solubility (mole fraction)", "setting": "in acetone, 319.25 K", "result": 0.614}, {"measurement": "solubility (mole fraction)", "setting": "in acetone, 323.15 K", "result": 0.627}, {"measurement": "solubility (mole fraction)", "setting": "in ethanol, 303.15 K", "result": 0.365}, {"measurement": "solubility (mole fraction)", "setting": "in ethanol, 308.15 K", "result": 0.396}, {"measurement": "solubility (mole fraction)", "setting": "in ethanol, 313.15 K", "result": 0.412}, {"measurement": "solubility (mole fraction)", "setting": "in ethanol, 318.15 K", "result": 0.451}, {"measurement": "solubility (mole fraction)", "setting": "in ethanol, 322.95 K", "result": 0.508}, {"measurement": "solubility (mole fraction)", "setting": "in ethanol, 327.95 K", "result": 0.538}, {"measurement": "solubility (mole fraction)", "setting": "in ethanol, 333.35 K", "result": 0.588}, {"measurement": "solubility (mole fraction)", "setting": "in ethanol, 338.15 K", "result": 0.63}, {"measurement": "solubility (mole fraction)", "setting": "in ethanol, 343.15 K", "result": 0.699}, {"measurement": "solubility (mole fraction)", "setting": "in p-cymene, 303.85 K", "result": 0.58}, {"measurement": "solubility (mole fraction)", "setting": "in p-cymene, 308.05 K", "result": 0.589}, {"measurement": "solubility (mole fraction)", "setting": "in p-cymene, 313.15 K", "result": 0.601}, {"measurement": "solubility (mole fraction)", "setting": "in p-cymene, 317.95 K", "result": 0.609}, {"measurement": "solubility (mole fraction)", "setting": "in p-cymene, 323.65 K", "result": 0.624}, {"measurement": "solubility (mole fraction)", "setting": "in p-cymene, 328.15 K", "result": 0.631}, {"measurement": "solubility (mole fraction)", "setting": "in p-cymene, 333.35 K", "result": 0.641}, {"measurement": "solubility (mole fraction)", "setting": "in p-cymene, 337.95 K", "result": 0.652}, {"measurement": "solubility (mole fraction)", "setting": "in p-cymene, 343.05 K", "result": 0.664}, {"measurement": "solubility (mole fraction)", "setting": "in p-xylene, 303.05 K", "result": 0.6}, {"measurement": "solubility (mole fraction)", "setting": "in p-xylene, 308.15 K", "result": 0.637}, {"measurement": "solubility (mole fraction)", "setting": "in p-xylene, 313.15 K", "result": 0.66}, {"measurement": "solubility (mole fraction)", "setting": "in p-xylene, 318.15 K", "result": 0.683}, {"measurement": "solubility (mole fraction)", "setting": "in p-xylene, 323.25 K", "result": 0.714}, {"measurement": "solubility (mole fraction)", "setting": "in p-xylene, 327.85 K", "result": 0.736}, {"measurement": "solubility (mole fraction)", "setting": "in p-xylene, 328.15 K", "result": 0.739}, {"measurement": "solubility (mole fraction)", "setting": "in p-xylene, 333.15 K", "result": 0.77}, {"measurement": "solubility (mole fraction)", "setting": "in p-xylene, 338.35 K", "result": 0.795}, {"measurement": "solubility (mole fraction)", "setting": "in p-xylene, 343.15 K", "result": 0.824}]}]}
